In PubChem BioAssay (NCI):
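Test compounds were applied to cells in 96-well plates for 48 hours at 5 doses. Here, GI50 denotes the concentration required for 50% inhibition of growth. At the TGI there is no net growth.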

What was measured:
Assay in all cases: inhibition of tumour cell growth, NCI panel, 48 h
DU-145 prostate = test system: DU-145 prostate
COLO 205 colon = test system: COLO 205 colon
SW-620 colon = test system: SW-620 colon
OVCAR-8 ovarian = test system: OVCAR-8 ovarian
SK-MEL-5 melanoma = test system: SK-MEL-5 melanoma
M14 melanoma = test system: M14 melanoma
SF-539 CNS = test system: SF-539 CNS
HOP-92 NSCLC = test system: HOP-92 NSCLC
HT29 colon = test system: HT29 colon
SN12C renal = test system: SN12C renal
SF-295 CNS = test system: SF-295 CNS
SNB-19 CNS = test system: SNB-19 CNS
UACC-257 melanoma = test system: UACC-257 melanoma
NCI-H23 lung = test system: NCI-H23 lung
PC-3 prostate = test system: PC-3 prostate
MDA-MB-231 breast = test system: MDA-MB-231 breast
BT-549 breast = test system: BT-549 breast
LOX IMVI melanoma = test system: LOX IMVI melanoma
NCI-H460 lung = test system: NCI-H460 lung
SR leukemia = test system: SR leukemia
MOLT-4 leukemia = test system: MOLT-4 leukemia
MDA-MB-468 breast = test system: MDA-MB-468 breast
OVCAR-5 ovarian = test system: OVCAR-5 ovarian
OVCAR-3 ovarian = test system: OVCAR-3 ovarian
HCT-116 colon = test system: HCT-116 colon
CAKI-1 renal = test system: CAKI-1 renal
A498 renal = test system: A498 renal
TK-10 renal = test system: TK-10 renal
UACC-62 melanoma = test system: UACC-62 melanoma
RXF 393 renal = test system: RXF 393 renal
SNB-75 CNS = test system: SNB-75 CNS
MCF7 breast = test system: MCF7 breast
HCC-2998 colon = test system: HCC-2998 colon
ACHN renal = test system: ACHN renal
UO-31 renal = test system: UO-31 renal
KM12 colon = test system: KM12 colon
K-562 leukemia = test system: K-562 leukemia
OVCAR-4 ovarian = test system: OVCAR-4 ovarian
U251 CNS = test system: U251 CNS
SK-MEL-28 melanoma = test system: SK-MEL-28 melanoma
HCT-15 colon = test system: HCT-15 colon
HOP-62 NSCLC = test system: HOP-62 NSCLC
A549 NSCLC = test system: A549 NSCLC
SK-OV-3 ovarian = test system: SK-OV-3 ovarian
IGROV1 ovarian = test system: IGROV1 ovarian
NCI-H226 lung = test system: NCI-H226 lung
MDA-MB-435 = test system: MDA-MB-435
HS 578T breast = test system: HS 578T breast
CCRF-CEM leukemia = test system: CCRF-CEM leukemia
786-0 renal = test system: 786-0 renal
NCI-H522 lung = test system: NCI-H522 lung
HL-60(TB) leukemia = test system: HL-60(TB) leukemia
SF-268 CNS = test system: SF-268 CNS
EKVX NSCLC = test system: EKVX NSCLC
RPMI-8226 leukemia = test system: RPMI-8226 leukemia
MALME-3M melanoma = test system: MALME-3M melanoma

Clc1cccc(-c2ccc(OCCCN3CCN(c4ccncc4)CC3)cc2)c1
GI50 (DU-145 prostate): 2.09 µM
TGI (DU-145 prostate): 4.79 µM
GI50 (COLO 205 colon): 1.64 µM
TGI (COLO 205 colon): 3.08 µM
GI50 (SW-620 colon): 1.7 µM
TGI (SW-620 colon): 3.27 µM
GI50 (OVCAR-8 ovarian): 2.34 µM
TGI (OVCAR-8 ovarian): 5.81 µM
GI50 (SK-MEL-5 melanoma): 1.65 µM
TGI (SK-MEL-5 melanoma): 3.04 µM
GI50 (M14 melanoma): 1.76 µM
TGI (M14 melanoma): 3.26 µM
GI50 (SF-539 CNS): 1.49 µM
TGI (SF-539 CNS): 2.85 µM
GI50 (HOP-92 NSCLC): 1.28 µM
TGI (HOP-92 NSCLC): 4.28 µM
GI50 (HT29 colon): 1.55 µM
TGI (HT29 colon): 3.18 µM
GI50 (SN12C renal): 1.7 µM
TGI (SN12C renal): 3.36 µM
GI50 (SF-295 CNS): 1.75 µM
TGI (SF-295 CNS): 3.24 µM
GI50 (SNB-19 CNS): 1.94 µM
TGI (SNB-19 CNS): 3.98 µM
GI50 (UACC-257 melanoma): 2.08 µM
TGI (UACC-257 melanoma): 4.14 µM
GI50 (NCI-H23 lung): 2.07 µM
TGI (NCI-H23 lung): 5.09 µM
GI50 (PC-3 prostate): 1.94 µM
TGI (PC-3 prostate): 6.15 µM
GI50 (MDA-MB-231 breast): 1.57 µM
TGI (MDA-MB-231 breast): 2.98 µM
GI50 (BT-549 breast): 2.5 µM
TGI (BT-549 breast): 5.92 µM
GI50 (LOX IMVI melanoma): 1.62 µM
TGI (LOX IMVI melanoma): 3.03 µM
GI50 (NCI-H460 lung): 1.74 µM
TGI (NCI-H460 lung): 3.31 µM
GI50 (SR leukemia): 0.886 µM
TGI (SR leukemia): > 100 µM
GI50 (MOLT-4 leukemia): 2.04 µM
TGI (MOLT-4 leukemia): 4.71 µM
GI50 (MDA-MB-468 breast): 1.66 µM
TGI (MDA-MB-468 breast): 3.26 µM
GI50 (OVCAR-5 ovarian): 1.93 µM
TGI (OVCAR-5 ovarian): 4.35 µM
GI50 (OVCAR-3 ovarian): 1.79 µM
TGI (OVCAR-3 ovarian): 3.56 µM
GI50 (HCT-116 colon): 1.5 µM
TGI (HCT-116 colon): 3.01 µM
GI50 (CAKI-1 renal): 1.67 µM
TGI (CAKI-1 renal): 3.33 µM
GI50 (A498 renal): 5.64 µM
TGI (A498 renal): 19.3 µM
GI50 (TK-10 renal): 2.73 µM
TGI (TK-10 renal): 8.21 µM
GI50 (UACC-62 melanoma): 1.73 µM
TGI (UACC-62 melanoma): 3.17 µM
GI50 (RXF 393 renal): 1.24 µM
TGI (RXF 393 renal): 2.66 µM
GI50 (SNB-75 CNS): 1.87 µM
TGI (SNB-75 CNS): 7.27 µM
GI50 (MCF7 breast): 1.5 µM
TGI (MCF7 breast): 3.04 µM
GI50 (HCC-2998 colon): 1.82 µM
TGI (HCC-2998 colon): 3.25 µM
GI50 (ACHN renal): 1.75 µM
TGI (ACHN renal): 3.16 µM
GI50 (UO-31 renal): 1.65 µM
TGI (UO-31 renal): 3.6 µM
GI50 (KM12 colon): 1.77 µM
TGI (KM12 colon): 3.28 µM
GI50 (K-562 leukemia): 1.63 µM
TGI (K-562 leukemia): 9.43 µM
GI50 (OVCAR-4 ovarian): 2.6 µM
TGI (OVCAR-4 ovarian): 8.32 µM
GI50 (U251 CNS): 1.57 µM
TGI (U251 CNS): 2.99 µM
GI50 (SK-MEL-28 melanoma): 1.82 µM
TGI (SK-MEL-28 melanoma): 3.52 µM
GI50 (HCT-15 colon): 1.23 µM
TGI (HCT-15 colon): 2.55 µM
GI50 (HOP-62 NSCLC): 1.67 µM
TGI (HOP-62 NSCLC): 3.12 µM
GI50 (A549 NSCLC): 1.71 µM
TGI (A549 NSCLC): 3.26 µM
GI50 (SK-OV-3 ovarian): 2.81 µM
TGI (SK-OV-3 ovarian): 10.4 µM
GI50 (IGROV1 ovarian): 1.71 µM
TGI (IGROV1 ovarian): 3.22 µM
GI50 (NCI-H226 lung): 3.51 µM
TGI (NCI-H226 lung): 15.1 µM
GI50 (MDA-MB-435): 1.7 µM
TGI (MDA-MB-435): 3.16 µM
GI50 (HS 578T breast): 1.96 µM
TGI (HS 578T breast): 5.11 µM
GI50 (CCRF-CEM leukemia): 1.49 µM
TGI (CCRF-CEM leukemia): 3.88 µM
GI50 (786-0 renal): 1.7 µM
TGI (786-0 renal): 3.07 µM
GI50 (NCI-H522 lung): 1.87 µM
TGI (NCI-H522 lung): 3.79 µM
GI50 (HL-60(TB) leukemia): 1.7 µM
TGI (HL-60(TB) leukemia): 4.48 µM
GI50 (SF-268 CNS): 2.08 µM
TGI (SF-268 CNS): 4.69 µM
GI50 (EKVX NSCLC): 1.85 µM
TGI (EKVX NSCLC): 4.65 µM
GI50 (RPMI-8226 leukemia): 1.89 µM
TGI (RPMI-8226 leukemia): 4.91 µM
GI50 (MALME-3M melanoma): 1.76 µM
TGI (MALME-3M melanoma): 3.22 µM
